Experimental data taken from patent publication US10966426B2, “Herbicidal compositions comprising phenylpyrimidines” (BASF SE, priority 2016, dated 2021).

Key:
Type in all cases: in vivo
Echinocloa crus-galli = test: greenhouse post-emergence treatment, ECHCG; conditions: Echinochloa crus-galli, 480 h, 20 DAT, flufenacet solo 31.25 gai/ha
How it was run: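 Foliar application to greenhouse-grown plants 3–15 cm tall in humus-containing loamy sand; response assessed on a 0–100 scale after 2–4 weeks, with Colby's E=X+Y−(X·Y/100) as the additive expectation.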

Lolium multiflorum = test: greenhouse post-emergence treatment, LOLMU; conditions: Lolium multiflorum, 480 h, 20 DAT, read-out: % activity
How it was run: (§1)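 Greenhouse test in humus-containing (~3.0%) loamy sand at species-dependent temperatures of 10-25° C. or 20-35° C.; treatments applied in water. Damage rated visually after 2–4 weeks (0 = none, 100 = complete destruction or no emergence).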

Stellaria media = test: greenhouse pre-emergence treatment, STEME; conditions: Stellaria media, 480 h, 20 DAT
How it was run: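 Damage rated on 0 to 100 scale (0 = normal growth, 100 = no emergence or total above-ground kill) after 2-4 weeks at species-dependent 10-25° C or 20-35° C. Seeds sown per species in loamy sand, ~3.0% humus, treated right after sowing with aqueous spray of single actives or 10% emulsion-concentrate mixtures, then hooded; additive expectation by Colby.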

Polygonum aviculare = test: greenhouse post-emergence treatment, POLAV; conditions: Polygonum aviculare, 480 h, 20 DAT
How it was run: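 Visual herbicidal effect (0–100) recorded over a 2 to 4 week test period after foliar treatment at plant heights of 3 to 15 cm. Expected combination effects derived by the Colby formula from single-component effects X and Y.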

Helianthus annuus = test: greenhouse post-emergence treatment, HELAN; conditions: Helianthus annuus, 480 h, 20 DAT, flufenacet solo 125 gai/ha
Procedure: The culture containers used were plastic pots containing loamy sand with approximately 3.0% of humus as substrate. The seeds of the test plants were sown separately for each species.
For the post-emergence treatment, the test plants were grown to a plant height of from 3 to 15 cm, depending on the plant habit, and only then treated with the active compounds which had been suspended or emulsified in water. To this end, the test plants were either sown directly, and grown in the same containers, or they were first grown separately as seedlings and transplanted into the test containers a few days prior to treatment.
Depending on the species, the plants were kept at 10-25° C. and 20-35° C., respectively.
The test period extended over 2 to 4 weeks. During this time, the plants were tended and their response to the individual treatments was evaluated.
Evaluation was carried out using a scale from 0 to 100. 100 means no emergence of the plants, or complete destruction of at least the above-ground parts, and 0 means no damage or normal course of growth. A good herbicidal activity is given at values of at least 70, and very good herbicidal activity is given at values of at least 85.
The respective stated components A and B, and if appropriate, C were formulated as a 10% by weight strength emulsion concentrate and, with addition of the amount of solvent system, introduced into the spray liquor used for applying the active compound. In the examples, the solvent used was water.
In the examples below, using the method of S. R. Colby (1967) “Calculating synergistic and antagonistic responses of herbicide combinations”, Weeds 15, p. 22ff., the value E, which is expected if the activity of the individual active compounds is only additive, was calculated. E=X+Y−(X·Y/100) where X=effect in percent using herbicide A at an application rate a; • Y=effect in percent using herbicide B at application rate b; • E=expected effect (in %) of herbicide A+herbicide B at application rates a+b.

Digitaria sanguinalis = test: greenhouse post-emergence treatment, DIGSA; conditions: Digitaria sanguinalis, 480 h, 20 DAT, read-out: % activity
How it was run: as §1

`CC(C)N(C(=O)COc1nnc(C(F)(F)F)s1)c1ccc(F)cc1` [flufenacet] gave an inhibition at 31.25 g/ha (Echinocloa crus-galli) of 25%, an inhibition at 31.25 g/ha (Lolium multiflorum; flufenacet solo 31.25 gai/ha) of 20% and an inhibition at 62.5 g/ha (Lolium multiflorum; flufenacet solo 62.5 gai/ha) of 50%. It also gave an inhibition at 125 g/ha (Lolium multiflorum; flufenacet solo 125 gai/ha) of 85%, an inhibition at 250 g/ha (Lolium multiflorum; flufenacet solo 250 gai/ha) of 85% and an inhibition at 15.6 g/ha (Stellaria media; flufenacet SC 500 g/l solo 15.6 gai/ha) of 0%. The inhibition at 31.25 g/ha (Stellaria media; flufenacet SC 500 g/l solo 31.25 gai/ha) was 0%, the inhibition at 62.5 g/ha (Stellaria media; flufenacet SC 500 g/l solo 62.5 gai/ha) was 0% and the inhibition at 125 g/ha (Stellaria media; flufenacet SC 500 g/l solo 125 gai/ha) was 0%. The inhibition at 62.5 g/ha (Polygonum aviculare; flufenacet solo 62.5 gai/ha, read-out: % activity) was 0%, the inhibition at 125 g/ha (Polygonum aviculare; flufenacet solo 125 gai/ha, read-out: % activity) was 0% and the inhibition at 250 g/ha (Polygonum aviculare; flufenacet solo 250 gai/ha) was 0%. It also gave an inhibition at 500000 µg/mL (stock) (Polygonum aviculare; POLAV, solo flufenacet (SC 500 g/l) 250 gai/ha) of 0%, an inhibition at 125 g/ha (Helianthus annuus) of 30% and an inhibition at 62.5 g/ha (Digitaria sanguinalis; flufenacet solo 62.5 gai/ha) of 10%. The inhibition at 125 g/ha (Digitaria sanguinalis; flufenacet solo 125 gai/ha) was 20% and the inhibition at 250 g/ha (Digitaria sanguinalis; flufenacet solo 250 gai/ha) was 65%.
